Results as given in article PMC12621189, “Optimization of Selective and CNS Penetrant Alkyne-Based TREK Inhibitors: The Discovery and Characterization of ONO-9517601 (VU6022856) and ONO-7927846 (VU6024391)” (Journal of Medicinal Chemistry, 2025).

Experiments:
[1] = Liver microsome intrinsic clearance, human; type: in vitro ADME; settings: for CLint scaled at 1 µM: pH 7.4, human liver microsomes, predicted intrinsic clearance, read-out: LMS CLINT human; for Predicted CLhep human: from microsomal CLint
Method in brief: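 Incubation in 100 mM potassium phosphate pH 7.4 with 3 mM MgCl2 at 37 °C, started with 1 mM NADPH after 5 min preincubation; sampled 0–45 min, quenched in acetonitrile, LC/MS/MS. Half-life from ln % remaining vs time; CLint scaled with 20 (human) or 45 (rat) factors, CLhep using Qh 21 (human) or 70 (rat) mL/min/kg.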

[2] = Rat brain to plasma ratio (Kp, Kp,uu); type: in vivo; settings: male, Sprague Dawley, intravenous, 0.2 mg/kg; for Kp at 15 min: brain and plasma, rat brain:plasma; for Kp uu at 15 min: brain and plasma (unbound), rat unbound brain:unbound plasma
Description: Determination of brain to plasma ratio:
All animal study procedures were approved by the Institutional Animal Care and Use Committee and were conducted in accordance with the National Institutes of Health regulations of animal care covered in Principles of Laboratory Animal Care (National Institutes of Health). All rats were fasted overnight prior to testing.
For determination of the brain over plasma ratio (Kp), compounds were formulated in 8% ethanol, 32% PEG400 and 60% DMSO (v/v/v) and administered as a single 0.2 mg/kg IV dose (1 mL/kg) to male, Sprague Dawley rats (n = 1) via injection into a surgically-implanted jugular vein catheter. At 15 min post dosing, blood sample was collected into chilled, K2EDTA anticoagulant-fortified tube and immediately placed on wet ice. The blood sample was then centrifuged (1700 rcf, 5 minutes, 4 °C) to obtain plasma sample. At the same post-administration time point, whole brain sample was obtained by rapid dissection, rinsed with PBS, and immediately frozen in individual tissue collection box (dry ice). All brain and plasma samples were stored at -80 °C until […]
Sample Analysis: Concentrations in plasma and brain homogenates were quantified by liquid chromatography tandem mass spectrometry (LC-MS/MS). Whole brains were homogenized in 3 mL of 70:30 IPA:water in a mini bead beater for 3 min, and centrifuged at 3,500 g for 5 min. 5 uL of the supernatant was diluted in 15 uL of blank plasma for quantification of the analytes. Plasma samples were centrifuged at 3,500 g for 5 min. A standard curve was generated by diluting the analytes DMSO stocks with blank plasma to obtain a final concentration of 10,000 ng/ml followed by a serial dilution down to 0.5 ng/ml. Quality controls were generated by a serial dilution of the 5,000 ng/ml standard curve solution in blank plasma to obtain 3 concentrations of 500, 50, and 5 ng/ml. 20 uL of brain diluted in plasma, plasma, blank plasma, standard curve and QC samples were loaded in a V-bottom 96-well plate. 120 uL of acetonitrile containing 0.05 uM carbamazepine (internal standard) was added to each well and the plate was centrifuged at 3,500 g for 5 min. 60 uL of the supernatant of each well (protein free) was transferred to a new 96-well plate containing 60 uL of water. The plates were sealed for analysis by LC-MS/MS.
Plasma and brain tissue samples originating from in vivo studies were analyzed by electrospray ionization using an AB Sciex Q-TRAP 5500 (Foster City, CA) that was coupled to a Shimadzu LC-20AD pump (Columbia, MD) and a Leap Technologies CTC PAL auto-sampler (Carrboro, NC). Analytes were separated by gradient elution using a C18 column (3 x 50 mm, 3 mm; Fortis Technologies Ltd, Cheshire, UK) that was thermostated at 40 °C. HPLC mobile phase A was 0.1% formic acid in water (pH unadjusted); mobile phase B was 0.1% formic acid in acetonitrile (pH […]
min, with an isocratic hold for 0.5 min, before transitioning to 10% B over 0.05 min. The column was re-equilibrated (1 min) before the next sample injection. The total run time was 2.55 min, and the HPLC flow rate was 0.5 ml/min. The source temperature was set at 500 °C, and mass spectral analyses were performed using a Turbo-Ion spray source in positive ionization mode (5.0-kV spray voltage) and using multiple-reaction monitoring of transitions specific for the analytes. All data were analyzed using AB Sciex Analyst 1.5.1 software.
Brain plasma concentration ratio (Kp) was calculated by dividing brain concentration by plasma concentration for each animal. Unbound brain to unbound plasma concentration ratio (Kp,uu) is calculated using the following formula: Kp,uu = (Brain ng/g x brain fu)/(plasma ng/ml x plasma fu).
In-vitro determination of blood-brain barrier penetration potential
Blood-brain barrier penetration was determined using MDR1-MDCK cell monolayers by Absorption Systems, following their protocol. In short, compounds were incubated at […] final concentration on one side of the cell monolayer for 2 hours. […]

[3] = Rat in vivo PK (plasma clearance) in SAR tables; settings: read-out: Rat CLp

Structure (SMILES)	CLint scaled at 1 µM [1]	Kp at 15 min [2]	clearance [3]	Predicted CLhep human [1]	Kp uu at 15 min [2]
Cc1cc(C#Cc2ccccc2)cnc1NC(=O)c1cc(OC[C@@H]2COCCO2)ccc1Cl [Compound 7, (S)-5-((1,4-Dioxan-2-yl)methoxy)-2-chloro-N-(3-methyl-5-(phenylethynyl)pyridin-2-yl)benzamide]	57 mL/min/kg	0.86	9.43 mL/min/kg		
CC(=O)N1CCC(n2ncc(Cl)c2C(=O)Nc2ncc(C#Cc3ccccc3)cc2C)CC1 [Compound 10, 1-(1-Acetylpiperidin-4-yl)-4-chloro-N-(3-methyl-5-(phenylethynyl)pyridin-2-yl)-1H-pyrazole-5-carboxamide]	6 mL/min/kg	2.7	27.7 mL/min/kg	4.9 mL/min/kg	1
CC(=O)N1CC[C@@H](n2ncc(Cl)c2C(=O)Nc2ncc(C#Cc3ccc(F)cc3)cc2C)[C@H](F)C1 [Compound 11, 1-((3R,4R)-1-Acetyl-3-fluoropiperidin-4-yl)-4-chloro-N-(5-((4-fluorophenyl)ethynyl)-3-methylpyridin-2-yl)-1H-pyrazole-5-carboxamide]	10 mL/min/kg	1.5		7.0 mL/min/kg	0.1
Cc1cc(C#Cc2ccccc2)cnc1NC(=O)c1c(Cl)cnn1[C@H]1CCOC1 [Compound 15a, (S)-4-Chloro-N-(3-methyl-5-(phenylethynyl)pyridin-2-yl)-1-(tetrahydrofuran-3-yl)-1H-pyrazole-5-carboxamide]	4 mL/min/kg	2.8	8.9 mL/min/kg		
